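Grown in 96-well plates, cells were treated for 48 hours with each compound at five concentrations. Insufficient inhibition: endpoint recorded as highest concentration tested. Definition used: TGI = concentration required for complete inhibition of growth.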 Where a SMILES comes first, the peptide text is derived from it. Bridges are numbered along the chain shown (N, C = ends). The star is where a group is joined. Cbz = O=C(OCc1ccccc1)*
Columns and labels:
Assay in all cases: DTP human tumour cell line panel, 48 h
[1] = test system: CAKI-1 renal
[2] = test system: CCRF-CEM leukemia
[3] = test system: DU-145 prostate
[4] = test system: HL-60(TB) leukemia
[5] = test system: HOP-92 NSCLC
[6] = test system: HS 578T breast
[7] = test system: IGROV1 ovarian
[8] = test system: K-562 leukemia
[9] = test system: LOX IMVI melanoma
[10] = test system: M14 melanoma
[11] = test system: MDA-MB-231 breast
[12] = test system: MOLT-4 leukemia
[13] = test system: OVCAR-3 ovarian
[14] = test system: OVCAR-5 ovarian
[15] = test system: PC-3 prostate
[16] = test system: SK-MEL-28 melanoma
[17] = test system: SK-OV-3 ovarian
[18] = test system: SR leukemia
[19] = test system: UO-31 renal
[20] = test system: BT-549 breast

Row | SMILES | TGI [1] | TGI [2] | TGI [3] | TGI [4] | TGI [5] | TGI [6] | TGI [7] | TGI [8] | TGI [9] | TGI [10] | TGI [11] | TGI [12] | TGI [13] | TGI [14] | TGI [15] | TGI [16] | TGI [17] | TGI [18] | TGI [19] | TGI [20]
1 | CC(=O)c1ccc(Br)cc1NC1=CC(=O)c2ncccc2C1=O | 22.3 µM | 32.2 µM | 16.4 µM | 3.61 µM | 26 µM | 35.6 µM | 12.4 µM | 10.1 µM | 18.9 µM | 10.6 µM | 10.8 µM | 9.6 µM | 4.09 µM | 33.8 µM | 13.5 µM | 20.7 µM | 29.1 µM | 5.97 µM | 15.8 µM | –
2 | Clc1ccc(/C=C/c2nc(-c3ccccc3)cn3c2nc2ccccc23)cc1Cl | – | 48 µM | > 100 µM | 49.7 µM | > 100 µM | – | > 100 µM | > 100 µM | > 100 µM | > 100 µM | > 100 µM | > 100 µM | > 100 µM | > 100 µM | > 100 µM | > 100 µM | > 100 µM | > 100 µM | > 100 µM | > 100 µM
3 | CCN(CC)C(=O)CCn1ccc(=O)[nH]c1=O | – | > 100 µM | – | > 100 µM | – | – | > 100 µM | > 100 µM | > 100 µM | > 100 µM | – | > 100 µM | > 100 µM | > 100 µM | – | > 100 µM | – | > 100 µM | > 100 µM | –
4 | O=C1C(Cl)C(c2cccc([N+](=O)[O-])c2)N1n1cnc2ccccc2c1=O (centres undefined) | > 100 µM | – | – | > 100 µM | – | – | > 100 µM | > 100 µM | > 100 µM | > 100 µM | – | > 100 µM | > 100 µM | > 100 µM | – | > 100 µM | > 100 µM | > 100 µM | > 100 µM | –
5 | O=C(O)c1cc(CCc2ccc(O)c(O)c2)ccc1O | > 100 µM | > 100 µM | > 100 µM | 59.2 µM | – | > 100 µM | > 100 µM | 45.8 µM | – | > 100 µM | – | > 100 µM | > 100 µM | > 100 µM | > 100 µM | – | > 100 µM | 61.7 µM | > 100 µM | > 100 µM
6 | O=C1c2ccccc2C(=O)N1/N=C1/SC(=Nc2ccccc2)C(=Nc2ccccc2)N1c1ccccc1 | > 100 µM | > 90.3 µM | > 100 µM | > 100 µM | > 100 µM | > 100 µM | > 100 µM | > 100 µM | > 100 µM | > 100 µM | – | > 100 µM | > 100 µM | > 100 µM | > 100 µM | > 69 µM | – | > 31.6 µM | > 100 µM | > 100 µM
7 | CCC(C)N1CN(c2ccccc2)C2(CCN(CC3COc4ccccc4O3)CC2)C1=O (centres undefined) | 38.4 µM | 64.5 µM | 59.8 µM | 34.4 µM | – | – | > 100 µM | 46.9 µM | 44.2 µM | 46.3 µM | > 100 µM | 66.4 µM | 56.2 µM | – | 87.3 µM | > 100 µM | > 100 µM | 76 µM | 30.2 µM | 31.6 µM
8 | C[C@@H]1C(=O)CC2C(C)(C)CCC[C@]2(C)[C@@]12CC[C@]1(C=COC1)O2 (some centres undefined) | > 100 µM | 70.8 µM | – | 42.3 µM | 48 µM | – | > 100 µM | 80.4 µM | > 100 µM | > 100 µM | – | 42.9 µM | > 100 µM | > 100 µM | – | – | 91.7 µM | 59 µM | > 100 µM | –
9 | C/C(=N/NC(=O)c1ccccc1S(N)(=O)=O)C(CN1CCCCC1)C(C1=C(O)C2C=CC=CC2OC1=O)c1ccccc1 (centres undefined) | > 100 µM | 67.7 µM | – | 53.3 µM | 77.1 µM | – | > 100 µM | > 100 µM | > 100 µM | > 100 µM | – | – | > 100 µM | > 100 µM | – | – | > 100 µM | 61.8 µM | > 100 µM | –
10 | C=CCOC(=O)Cn1cnc2c(N)ncnc21 | > 100 µM | > 100 µM | > 100 µM | > 100 µM | – | > 100 µM | > 100 µM | > 100 µM | > 100 µM | > 100 µM | > 100 µM | > 100 µM | – | – | > 100 µM | > 100 µM | > 100 µM | > 100 µM | > 100 µM | –
11 | N=C(N)SCc1ccc2c(c1)S(=O)(=O)c1ccccc1O2 | 51.7 µM | > 100 µM | > 100 µM | > 100 µM | 42.8 µM | 78.7 µM | 31.5 µM | > 100 µM | 60.2 µM | 62.5 µM | > 100 µM | > 100 µM | 40.5 µM | 47.3 µM | 37.4 µM | 33.1 µM | 53.2 µM | > 100 µM | 29.7 µM | –
12 | CC(C)(C)C(=O)/C=C(\OB(F)F)C(C)(C)C | > 100 µM | > 100 µM | > 100 µM | > 100 µM | > 100 µM | > 100 µM | > 100 µM | > 100 µM | > 100 µM | > 100 µM | > 100 µM | > 100 µM | > 100 µM | > 100 µM | > 100 µM | > 100 µM | > 100 µM | > 100 µM | > 100 µM | –
13 | Cc1ccc(S(=O)(=O)NNC(=O)Nc2cccc(C(F)(F)F)c2)cc1 | > 100 µM | > 100 µM | > 100 µM | > 100 µM | > 100 µM | > 100 µM | > 100 µM | > 100 µM | – | > 100 µM | > 100 µM | > 100 µM | – | > 100 µM | > 100 µM | > 100 µM | > 100 µM | > 100 µM | > 100 µM | –
14 | CNC(=O)C1CCCCNC(=O)CCC(NC(=O)OCc2ccccc2)C(=O)N1 (stereo not drawn) (Cbz-Glu-Lys-NHMe; lactam 1-2; configuration not given here) | > 100 µM | > 100 µM | > 100 µM | > 100 µM | > 100 µM | > 100 µM | > 100 µM | > 100 µM | > 100 µM | > 100 µM | > 100 µM | > 100 µM | > 100 µM | > 100 µM | > 100 µM | > 100 µM | > 100 µM | – | > 100 µM | –

Source: PubChem BioAssay (NCI)
